Experimental data: patent US12162863B2, “Modulators of stimulator of interferon genes (STING)” (RYVU THERAPEUTICS S.A., priority 2018, dated 2024)

Tests used:
[1] = tested on: interferon regulatory factor (IRF) pathway in THP-1 dual cells; assay: THP-1 Dual Reporter Assay, IRF pathway (luciferase reporter); assay type: cell-based; conditions: Homo sapiens, THP1-Dual, 18 h of stimulation, luminescence
Experimental: (§1) THP-1 Dual Reporter Assay
(§2) Compounds of the present invention were tested for their activity using THP-1 dual cells (Invivogen, cat no. thpd-nfis) allowing for simultaneous study of NF-κB pathway and the interferon regulatory factor (IRF) pathway. THP-1 dual cells contain luciferase reporter gene under the control of an ISG54 (interferon-stimulated gene) minimal promoter in conjunction with five interferon-stimulated response elements and a secreted embryonic alkaline phosphatase reporter gene under the control an IFN (interferon)-β minimal promoter fused to five copies of the NF-κB consensus transcriptional response element with three copies of the c-Rel binding site. Following 18 h of stimulation with STING agonist, medium was collected and transferred onto fresh cell culture plate. To verify activity of the IRF pathway, luminescence activity was measured with standard laboratory plate reader immediately after addition 10 μl of the medium to 50 μl of luminescence reagent (Invivogen, cat. No. rep-qlc2). To verify activity of NF-κB pathway, 20 μl of the medium was mixed with 80 μl of a detection medium (Invivogen, cat. No. rep-qb2) and incubated for 2 hours at 37° C. in a humidified atmosphere containing 5% CO2. Next, absorbance at 630 nm was recorded using standard laboratory plate reader.

[2] = biological target: human STING (Homo sapiens, UniProt Q86WV6); assay: Fluorescence Thermal Shift assay; assay type: binding; conditions: 50 μM compound; STING 0.1 mg/ml; 20 minutes preincubation; read-out: [hSTING] FTS, ΔTm [° C.] for 50 μM
Sequence of human STING (Q86WV6 whole entry H232R): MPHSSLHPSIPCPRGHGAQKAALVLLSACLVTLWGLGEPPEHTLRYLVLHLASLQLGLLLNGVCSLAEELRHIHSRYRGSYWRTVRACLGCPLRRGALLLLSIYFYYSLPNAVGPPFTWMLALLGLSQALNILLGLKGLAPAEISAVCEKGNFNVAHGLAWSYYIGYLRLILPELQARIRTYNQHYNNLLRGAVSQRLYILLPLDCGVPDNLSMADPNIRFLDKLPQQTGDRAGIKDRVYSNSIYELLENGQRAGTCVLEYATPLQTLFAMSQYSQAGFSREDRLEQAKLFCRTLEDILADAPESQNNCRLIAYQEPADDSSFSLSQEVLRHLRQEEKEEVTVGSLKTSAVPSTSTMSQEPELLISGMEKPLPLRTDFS
Experimental: Fluorescence Thermal Shift Assay Compounds of the present invention were tested for binding to human STING in Fluorescence Thermal Shift assay. STING was preincubated with the compounds for 20 minutes in 50 mM Hepes, 150 mM NaCl, pH 7.5 in 16 μl volume, following by adding 4 μl of SyproOrange dye dilution (ThermoFisher, cat no. S-6651). Final STING concentration was 0.1 mg/ml. Thermal unfolding was performed in Real-Time PCR QuantStudio 6 Flex System (Applied Biosystems), from 25 to 99° C., with continuous ramp mode and ramp rate 0.033° C./s. The data were analyzed using Protein Thermal Shift Software (ThermoFisher). […] For example, ΔTm [° C.] of FTS assay for following examples are: […]

[3] = tested on: NF-κB pathway in THP-1 dual cells; assay: THP-1 Dual Reporter Assay, NF-κB pathway (SEAP reporter); assay type: cell-based; conditions: Homo sapiens, THP1-Dual, 18 h of stimulation, absorbance at 630 nm, read-out: THP1 Dual EC50 (μM) NFkB
Experimental: as §1, §2

Row | Structure (SMILES) | EC50 [1] [µM] | ΔTm at 50 µM [2] [°C] | EC50 [3] [µM]
1 | COc1cc(CN(CCCn2cnc3ccccc32)Cc2cn(C)c3ccccc3c2=O)ccn1 [Example 82, 3-({[3-(1H-1,3-benzodiazol-1-yl)propyl][(2-methoxypyridin-4-yl)methyl]amino}methyl)-1-methyl-1,4-dihydroquinolin-4-one] | ≤ 10 | > 2.5 | ≤ 10
2 | O=c1c(CN(CCCn2ccnc2)Cc2ccncc2)coc2cc(-c3ccc(F)cc3)ccc12 [Example 23, 7-(4-fluorophenyl)-3-({[3-(1H-imidazol-1-yl)propyl](pyridin-4-ylmethyl)amino}methyl)-4H-chromen-4-one] | ≥ 20 | > 2.5 | ≥ 20
3 | O=c1c(CN(CCCCn2ccnc2)Cc2ccncc2)coc2ccccc12 [Example 1, 3-({[4-(1H-imidazol-1-yl)butyl](pyridin-4-ylmethyl)amino}methyl)-4H-chromen-4-one] | 10 to 20 | < 2.5 | ≥ 20
4 | Cc1oc2cc(N3CCOCC3)c(F)cc2c(=O)c1CN(CCCc1cccnc1)Cc1ccncc1 [Example 70, 6-fluoro-2-methyl-7-(morpholin-4-yl)-3-({[3-(pyridin-3-yl)propyl][(pyridin-4-yl)methyl]amino}methyl)-4H-chromen-4-one] | ≤ 10 | > 2.5 | ≤ 10
5 | COc1cc(CN(CCCn2cnc3ncncc32)Cc2cn(C)c3ccccc3c2=O)ccn1 [Example 91, 3-({[(2-methoxypyridin-4-yl)methyl][3-(7H-purin-7-yl)propyl]amino}methyl)-1-methyl-1,4-dihydroquinolin-4-one] | ≥ 20 | < 2.5 | ≥ 20
6 | COc1cc(CN(CCCn2ccnc2)Cc2cn(C)c3ccccc3c2=O)ccn1 [Example 44, 3-({[3-(1H-imidazol-1-yl)propyl][(2-methoxypyridin-4-yl)methyl]amino}methyl)-1-methyl-1,4-dihydroquinolin-4-one] | 10 to 20 | < 2.5 | ≥ 20
7 | COc1cc2ncn(CCCN(Cc3ccncc3)Cc3coc4c(ccc5ccccc54)c3=O)c2cc1OC [Example 76, 3-({[3-(5,6-dimethoxy-1H-1,3-benzodiazol-1-yl)propyl](pyridin-4-ylmethyl)amino}methyl)-4H-benzo[h]chromen-4-one] | ≤ 10 | > 2.5 | ≤ 10
8 | Cc1ccc2c(=O)c(CN(CCCn3cccc3)Cc3ccncc3)coc2c1C [Example 15, 7,8-dimethyl-3-{[(pyridin-4-ylmethyl)[3-(1H-pyrrol-1-yl)propyl]amino]methyl}-4H-chromen-4-one] | ≥ 20 | < 2.5 | ≥ 20
9 | O=c1c(CN(CCCn2cnc3ccccc32)Cc2ccncc2)coc2c1ccc1ccccc12 [Example 50, 3-({[3-(1H-1,3-benzodiazol-1-yl)propyl][(pyridin-4-yl)methyl]amino}methyl)-4H-benzo[h]chromen-4-one] | ≤ 10 | > 2.5 | ≤ 10
10 | O=c1c(CN(CCCn2ccnc2)Cc2ccncc2)c[nH]c2ccccc12 [Example 74, 3-({[3-(1H-imidazol-1-yl)propyl][(pyridin-4-yl)methyl]amino}methyl)-1,4-dihydroquinolin-4-one] | ≥ 20 | < 2.5 | ≥ 20
11 | Cc1oc2cc(N3CCNCC3)c(F)cc2c(=O)c1CN(CCCc1cccnc1)Cc1ccncc1 [Example 69, 6-fluoro-2-methyl-7-(piperazin-1-yl)-3-({[3-(pyridin-3-yl)propyl][(pyridin-4-yl)methyl]amino}methyl)-4H-chromen-4-one] | ≤ 10 | > 2.5 | ≤ 10
12 | COc1cccc(-c2ccc3c(=O)c(CN(CCCn4ccnc4)Cc4ccncc4)coc3c2)c1 [Example 40, 3-({[3-(1H-imidazol-1-yl)propyl][(pyridin-4-yl)methyl]amino}methyl)-7-(3-methoxyphenyl)-4H-chromen-4-one] | ≤ 10 | > 2.5 | ≤ 10
13 | COc1ccc2ccc3c(=O)c(CN(CCCn4cnc5ccccc54)Cc4ccncc4)coc3c2c1 [Example 62, 3-({[3-(1H-1,3-benzodiazol-1-yl)propyl][(pyridin-4-yl)methyl]amino}methyl)-9-methoxy-4H-benzo[h]chromen-4-one] | ≤ 10 | > 2.5 | ≤ 10
14 | CN1CCN(c2cc3occ(CN(CCCn4ccnc4)Cc4ccncc4)c(=O)c3cc2F)CC1 [Example 49, 6-fluoro-3-({[3-(1H-imidazol-1-yl)propyl][(pyridin-4-yl)methyl]amino}methyl)-7-(4-methylpiperazin-1-yl)-4H-chromen-4-one] | ≤ 10 | > 2.5 | ≤ 10
15 | CN1CCN(c2ccc3c(=O)c(CN(CCCn4ccnc4)Cc4ccncc4)coc3c2)CC1 [Example 12, 3-({[3-(1H-imidazol-1-yl)propyl](pyridin-4-ylmethyl)amino}methyl)-7-(4-methylpiper-azin-1-yl)-4H-chromen-4-one] | ≤ 10 | > 2.5 | 10 to 20
16 | Cc1oc2cc(N3CCN(C)CC3)c(F)cc2c(=O)c1CN(CCCn1cnc2cncnc21)Cc1ccncc1 [Example 79, 6-fluoro-2-methyl-7-(4-methylpiperazin-1-yl)-3-({[3-(9H-purin-9-yl)propyl][(pyridin-4-yl)methyl]amino}methyl)-4H-chromen-4-one] | ≤ 10 | > 2.5 | ≤ 10
17 | COc1cc(CN(CCCn2ccnc2)Cc2coc3cc(O)ccc3c2=O)ccn1 [Example 27, 7-hydroxy-3-({[3-(1H-imidazol-1-yl)propyl][(2-methoxypyridin-4-yl)methyl]amino}methyl)-4H-chromen-4-one] | 10 to 20 | > 2.5 | ≥ 20
18 | COc1cc(CN(CCCc2cncnc2)Cc2cn(C)c3ccccc3c2=O)ccn1 [Example 96, 3-({[(2-methoxypyridin-4-yl)methyl][3-(pyrimidin-5-yl)propyl]amino}methyl)-1-methyl-1,4-dihydroquinolin-4-one] | ≤ 10 | > 2.5 | ≤ 10
19 | COc1cc(CN(CCCc2cncc3[nH]ncc23)Cc2c(C)oc3cc(Br)c(F)cc3c2=O)ccn1 [Example 92, 7-bromo-6-fluoro-3-({[(2-methoxypyridin-4-yl)methyl](3-{1H-pyrazolo[3,4-c]pyridin-4-yl}propyl)amino}methyl)-2-methyl-4H-chromen-4-one] | ≥ 20 |  | ≥ 20
20 | COc1cc(CN(CCCc2ccnnc2)Cc2cn(C)c3ccccc3c2=O)ccn1 [Example 102, 3-({[(2-methoxypyridin-4-yl)methyl][3-(pyridazin-4-yl)propyl]amino}methyl)-1-methyl-1,4-dihydroquinolin-4-one] | ≥ 20 | < 2.5 | ≥ 20
21 | O=C1CCCN1CCCN(Cc1ccncc1)Cc1coc2ccccc2c1=O [Example 8, 1-(3-{[(4-oxo-4H-chromen-3-yl)methyl](pyridin-4-ylmethyl)amino}propyl)pyrrolidin-2-one] | ≥ 20 | < 2.5 | ≥ 20
22 | COc1cc(CN(CCCn2cnc3ccccc32)Cc2cnc3ccccn3c2=O)ccn1 [Example 86, 3-({[3-(1H-1,3-benzodiazol-1-yl)propyl][(2-methoxypyridin-4-yl)methyl]amino}methyl)-4H-pyrido[1,2-a]pyrimidin-4-one] | ≥ 20 |  | ≥ 20
23 | N#Cc1ccc2c(=O)c(CN(CCCn3ccnc3)Cc3ccncc3)coc2c1 [Example 24, 3-({[3-(1H-imidazol-1-yl)propyl][(pyridin-4-yl)methyl]amino}methyl)-4-oxo-4H-chromene-7-carbonitrile] | ≥ 20 |  | ≥ 20
24 | COc1cc(CN(CCCn2cnc3ccccc32)Cc2c(C)oc3c(ccc4ccccc43)c2=O)ccn1 [Example 87, 3-({[3-(1H-1,3-benzodiazol-1-yl)propyl][(2-methoxypyridin-4-yl)methyl]amino}methyl)-2-methyl-4H-benzo[h]chromen-4-one] | ≥ 20 |  | ≥ 20
25 | O=c1c(CN(CCCn2ccnc2)Cc2ccncc2)cnc2ccccn12 [Example 35, 3-({[3-(1H-imidazol-1-yl)propyl][(pyridin-4-yl)methyl]amino}methyl)-4H-pyrido[1,2-a]pyrimidin-4-one] | ≥ 20 |  | ≥ 20
